Columns and labels:
LTB4 receptor = target: T1, LTB4 receptor (Homo sapiens, UniProt Q15722); assay: LTB4 Receptor Binding Assay (inhibition of specific binding of (3H) LTB4 to human neutrophils); conditions: 0.6 nM (3H) LTB4, 0° C., 45 minutes; for IC50: pH 7.4
T1 construct: neutrophils were purified from venous blood of normal human donors; endogenous in cells; host or cells: neutrophils purified from venous blood of normal human donors (purity at least 95%)
Excerpt: (§1) For use in both the "LTB4 receptor Binding Assay" and the "human Neutrophil Degranulation Assay", neutrophils were purified from venous blood of normal human donors using standard techniques of dextran sedimentation, centrifugation on Histopaque® (density solution) and hypotonic lysis of erythrocytes (Boyum, A., Isolation of Leukocytes From Human Blood: Further Observations. Scand. J. Lab. Clin. Inves. 21 (Suppl. 97): 31, 1968). The purity of isolated neutrophils was ≥95%.
Neutrophils (4-6×10^6) in 1 ml of Hanks balanced salt solution containing 10 mM Hepes Buffer (HBSS), pH 7.4 and 30 μM nordihydroguaiaretic acid were incubated with 0.6 nM (^3 H) LTB4 in the presence or absence of test compounds. The incubation was carried out at 0° C. for 45 minutes and terminated by adding 5 ml of ice cold HBSS followed by rapid filtration of incubation mixture under vacuum through GF/C glass fiber filters. The filters were further washed with 10 ml HBSS and their radioactivity was determined. Specific binding was defined as the difference between total binding and nonspecific binding which was not displaced by 10-^7 M unlabeled LTB4.
The inhibition of specific binding was determined for representatives compounds of this invention, and the corresponding IC50 values calculated (Table 1). An IC50 is the concentration of the compound of interest which will inhibit the binding of LTB4 by 50% of the LTB4 receptors. For example, for the compound of Example 7, the IC50 was determined to be approximately

[1] = system: LTB4 induced degranulation of human neutrophils; assay: Human Neutrophil Degranulation Assay (LTB4 induced myeloperoxidase release); assay type: cell-based; conditions: cytochalasin B, LTB4 5×10^-8 M, read-out: Inhibition of LTB4 Induced Neutrophil Degranulation IC50
Excerpt: as §1
LTB4 induced neutrophil degranulation was determined by measuring the release of myeloperoxidase activity into the incubation medium. Neutrophils (3×10^6) in 1 ml HBSS solution were preincubated with cytochalasin B(5 μg) at 37° C. for 5 minutes, followed by preincubation with test compounds for 7 minutes. Neutrophilsere then incubated for 2 to 20 minutes with either LTB4 (5 ×10^-8 M) or the chemotactic peptide f-met-leu-phe (5×10^-6 M) to induce degranulation. Following incubation, samples were centrifuged and myleoperoxidase was extracted from the cell pellets by sonication in phosphate buffer containing 0.4% Triton X-100. Triton X-100 was also added to the supernatents to a concentration of 0.4%. The supernatants and the pellet extracts were then assayed spectrophotometrically for myeloperoxide activity by determining the rate of decomposition of H2 O2 with o-dianisidine as hydrogen donor as described by Renlund D. G., MacFarlane J. L., Christensen, R. D., Lynch R. E., and Rothstein, G., A Quantitative And Sensitive Method For Measurement Of Mveloperoxidase, Clinical Research 28:75A, 1980). Myeloperoxidase activity released into the supernatant was expressed as the percent of the average total activity (pellet plus supernatant).
The inhibition of LTB4 induced neutrophil degranulation was determined for representative compounds of this invention and their corresponding IC50 values were calculated (Table 1). The concentration of a compound which inhibited LTB4 induced neutrophil degranulation by 50% was determined to be its IC50 value.

T1 sequence (Q15722 whole entry): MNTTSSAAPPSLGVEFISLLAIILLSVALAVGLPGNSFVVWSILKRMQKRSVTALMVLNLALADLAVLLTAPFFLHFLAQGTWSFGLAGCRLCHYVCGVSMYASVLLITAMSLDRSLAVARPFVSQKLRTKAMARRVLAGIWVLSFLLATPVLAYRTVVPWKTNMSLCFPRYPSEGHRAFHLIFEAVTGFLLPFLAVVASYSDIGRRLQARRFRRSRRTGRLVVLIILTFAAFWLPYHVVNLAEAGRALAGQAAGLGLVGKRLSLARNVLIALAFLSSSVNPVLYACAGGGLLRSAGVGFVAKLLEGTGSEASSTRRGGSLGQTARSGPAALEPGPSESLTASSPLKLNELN

Inhibition of Receptor Binding of LTB4, % inhibition (LTB4 receptor; at 10 μM) [%] | IC50 [1] [nM] | IC50 (LTB4 receptor) [nM] | Substance
20 | 8700 | – | 7-[2-[5-(1-hydroxynonyl)thienyl]-5-hydroxy-6Z-heptenoic acid, lithium salt [Example 23]
– | 1800 | 5000 | 7-[2-[5-(1-hydroxynonyl)thienyl]-5-hydroxy-6Z-heptynoic acid, lithium salt [Example 22]
– | 650 | 1000 | Methyl 7-[4-(hydroxynonyl)phenyl]-5-hydroxy-6heptynoate [Example 11]

— US4895869A, “Phenylene, furyl, and thienyl leukotriene B4 analogues” (C. D. Searle & Co., priority 1988, dated 1990)
